# Results taken from patent US8980879B2 (AbbVie Inc., priority 2013, dated 2015).
# Marks after values point to notes of the source that are not given here.
# Tests used:
# BRD4 (BDII_E352-M457) = target: T1, BRD4 (BDII_E352-M457) (Homo sapiens, UniProt O60885); assay: TR-FRET bromodomain binding assay, BRD4 second bromodomain
# T1 construct: protocol; made in house
# [1] = tested on: OPM-2 human multiple myeloma cancer xenograft; assay: Xenograft tumor growth inhibition assay (OPM-2); assay type: in vivo, mice; conditions: for % TGI: QDx21, female SCID-beige mice; for % removed from study: QDx21, removed due to morbidity or weight loss in excess of 20%
# Experimental: Xenograft Tumor Growth Inhibition Assay
# The effect of compounds of the examples to inhibit the growth of OPM-2 xenograft tumors implanted in mice was evaluated. A suspension of cancer cells (5×10^6 per 0.1 mL) prepared in RPMI culture medium (Invitrogen, Carlsbad, Calif.) was diluted 1:1 with a solution of Matrigel™ (BD Biosciences, Franklin Lakes, N.J.) and inoculated subcutaneously into the right hind flank of female SCID-beige (Charles River Labs) mice. […] Administration of compound or vehicle was initiated on the day following randomization and continued for 21 days. Tumors were measured twice a week throughout the treatment period using a pair of calipers and tumor volumes were calculated according to the formula V=L×W^2/2 (V: volume, mm^3; L: length, mm. W: width, […]) Tumor growth inhibition was calculated based on the mean tumor volume measured on the first day that the mean volume of the vehicle group exceeded 2000 mm^3 according to the formula % TGI=100−mean tumor volume of treatment group/mean tumor volume of control group×100.
# [2] = tested on: breast cancer cell line MX-1; assay: MX-1 cell line proliferation assay; assay type: cell-based; conditions: Homo sapiens, MX1; MX-1 cells, 3-day (72 h) proliferation, Cell Titer Glo; read-out: Cellular proliferation: EC50
# Procedure, shortened: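 MX-1 breast cancer cells (5000/well, RPMI 1640 + 10% FBS) adhered overnight, then got compound at final 3 μM down to 0.0001 μM (3-fold series) for a 3-day assay at 37 °C. Read-out: CellTiter-Glo luminescence normalized to DMSO; EC50 from sigmoidal fit.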
# BRD4 (BDI_K57-E168) = target: T2, BRD4 (BDI_K57-E168) (Homo sapiens, UniProt O60885); assay: TR-FRET bromodomain binding assay, BRD4 first bromodomain; conditions: His-tagged BD1, 100 nM Alexa647 probe; assay protocol D or F as given per row in c1; Ki calculated from IC50
# T2 construct: BD1: amino acids K57-E168; made in house
# [3] = tested on: LPS induced IL-6 production; assay: LPS (lipopolysaccharide) induced IL-6 production mouse assay; assay type: in vivo, mice; conditions: SCID female mice, 3 mg/kg oral 1 h before LPS 2.5 mg/kg ip, serum IL-6 2 h after LPS; p<0.05
# Experimental: LPS (Lipopolysaccharide) Induced IL-6 Production Mouse Assay
# Compounds of the Examples listed in Table 2 were assayed for their ability to inhibit LPS (lipopolysaccharide) induced IL-6 (Interleukin-6) production in mice. Fox Chase SCID® female mice (Charles Rivers Labs, 5 per group) or CD1 female mice (5 mice per group) received an intraperitoneal challenge of lipopolysaccharide (2.5 mg/kg, L2630 E. coli 0111:B4) one hour after oral administration of compounds. Mice were euthanized 2 hours after lipopolysaccharide injection, blood was removed by cardiac puncture, and then the serum harvested from the blood samples was frozen at −80° C. On the day of the assay the serum samples were brought to room temperature and then diluted 1:20 in phosphate-buffered saline containing 2% bovine serum albumin. Interleukin-6 measurements were performed using a cytokine assay from Meso Scale Discovery (Gaithersburg, Md.) for mouse serum analysis according to the manufacturer's protocol and read on a SECTOR Imager 6000 (Meso Scale Discovery, Gaithersburg, Md.) instrument. Statistical analysis was performed using Prism software (version 5.0) incorporating Dunnett's one way ANOVA. The IL-6 mean and standard deviation of the group of vehicle treated animals were compared with the IL-6 mean and standard deviation of the group treated with drug. A p value <0.05 means that there is less than a 5% probability that the mean values in the two groups are equal.
Ki (BRD4 (BDII_E352-M457)) [nM],EC50 [2] [nM],Ki (BRD4 (BDI_K57-E168)) [nM],SMILES,% TGI ([1]; 3.75 mg/kg PO),% removed from study ([1]; 3.75 mg/kg PO) [%],% TGI ([1]; 7.5 mg/kg PO),% removed from study ([1]; 7.5 mg/kg PO) [%],% inhibition at 3 mg/kg (LPS induced IL-6 production) [3] [%],% TGI ([1]; 2.5 mg/kg PO),% removed from study ([1]; 2.5 mg/kg PO) [%],% TGI ([1]; 5.0 mg/kg PO),% removed from study ([1]; 5.0 mg/kg PO) [%]
2.15,1.39,0.61,Cn1cc2c3c(c[nH]c(=O)c31)CN(c1ccc(F)cc1)c1ccc(CS(C)(=O)=O)cc1-2 [Example 4],68*** %,11,84*** %,44,70,–,–,–,–
1.95,3.95,1.76,Cn1cc2c3c(c[nH]c(=O)c31)CN(c1ccc(F)cc1F)c1ccc(CS(C)(=O)=O)cc1-2 [Example 5],–,–,–,–,71,66*** %,0,81*** %,44
